Broadly, the IC50 is the midpoint of a concentration-inhibition curve. As a reminder, the pIC50 is the IC50 on a negative log10 scale, so that one unit is a factor of ten.

The results in this text go back to patent EP3290412A1, “HIV-1 NUCLEOCAPSID INHIBITORS” (Università degli Studi di Siena, priority 2016, dated 2018).

Type in all cases: cell-based
Data set [1] concerns HIV-1 reference strain NL4-3. Nature of the data set: BiCycle assay (MT-2 then TZM-bl cells). The settings on record: for IC50: Human immunodeficiency virus 1, NL43, TZM-bl, read-out: BiCycle IC50 nM; for pIC50: Human immunodeficiency virus 1, NL43, MT-2 cells 72 hours then TZM-bl cells two days, NL4-3, read-out: BiCycle IC50. In a few lines:
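MT-2 cells were infected with NL4-3 in the presence of five-fold compound dilutions. After 72 h, the supernatant was passed to TZM-bl cells. Two days later, luciferase luminescence was read and IC50 calculated, giving a readout that spans the whole replication cycle.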

The subject of a further data set is HeLa cells. The data set is described as follows: HeLa Proliferation assay (CellTiter Glo). The settings on record: 72 hours. Here is the method: HeLa cells (ATCC® CCL2™) in DMEM (Dulbecco Modified Eagle's Medium) without phenol red, Thermo, 11880, USA + 10% FBS + 1X PenStrep + 1X Gln or HUVEC cells (ATCC® CRL1730™) in EBM-2 (Endothelial Growth Basal Medium, Lonza, CC3156) + EGM-2 SingleQuotsTMSupplements and Growth Factors (Lonza, CC4176) + 1X Penicyllin-Streptomycin (PenStrep, ThermoFisher) + 1X Glutamine, are plated in a 384 well plate (Thermo, 4334-11, USA) to a density of 2000 cells per well and let recover for four hours at 37 °C, 5% CO2 in a humidified atmosphere. After the recovery, compounds are transferred to assay plates as per compound preparation method. Assay plates are then incubated at 37 °C, 5% CO2 in a humidified atmosphere for 72 hours. Cell viability is measured by the CellTiter Glo (Promega, G8080, USA) as per manufacturer instruction.
A general note: Cellular ATP, detected with luciferase, serves as a proxy for viable cell number.

For data set [2], the system named is Peripheral blood mononuclear cells (PBMC). The settings on record: human, 7 days. Here is the method:
Peripheral blood mononuclear cells (PBMC) obtained from healthy donors by separation over Ficoll-Hypaque (GEHealthear-Cat.# GEH17-1440-02) were suspended at 2x10^6 cells/mL in RPMI 1640 (Biowest-Cat.#L0501-500) supplemented with 10% of heat-inactivated sterile fetal bovine serum (Gibco-Cat.#10270-106), 2 mmol/l L-glutamine (Biowest-Cat.#X0550-100), 50 U/mL Penicillin-50 µg/mL Streptomycin (Biowest-Cat.#L0022-100), referred to as complete medium (CM). PBMC were supplemented with 5 µg/mL of phytohaemagglutinin (Sigma Aldr-Cat.#L1668) and cultured in 75 cm^2 flasks (Sarsted-Cat.#833.911.002) for 2 days at 37 °C in a humidified atmosphere with 5% CO2.
PBMC were then washed in CM, counted by trypan blue exclusion (Gibco-Cat. #15250-061), centrifuged and suspended in fresh CM supplemented with 20 IU/mL recombinant human IL-2 (Miltenyi Biotec-Cat.#130-097-748) and seeded in a 96-well-tissue culture plate (Sarsted-Ca#831.837) at the density of 5x10^5 cells/mL (or 1x10^5 cells in 200 µL final CM volume per well). Cells were left untreated (negative control) or treated with different concentrations of the compounds.
After 7 days of incubation cytotoxicity was determined using Promega's CellTiter 96(R) AQueous One Solution Cell Proliferation Assay (MTS assay) (Promega-Cat.#G3581) according to the manufacturer's instuctions. This is a colorimetric method for determining the number of viable cells in proliferation or cytotoxicity assays. The MTS tetrazolium compound is bioreduced by cells into a colored formazan product that is soluble in tissue culture medium. This conversion is presumably accomplished by NADPH or NADH produced by dehydrogenase enzymes in metabolically active cells.
Briefly, MTS solution was thawed at room temperature, or in a water bath at 37 °C and 40 µL of MTS solution was pipeted into each well of the 96-well assay plate containing the samples in 200 µL of culture medium and incubated at 37 °C, 5% CO2 for 4 hours. The optical density was read at 490 nm using a 96-well plate reader (Tecan Infinite F50) and TD50 (toxic dose 50%, dose killing 50% of the cells compared to untreated control) value was calculated by interpolation of the curve obtained by plotting dose against percent mortality and by using "Magellan data analysis software". CM alone plus MTS solution was used as a blank, and cell culture well without compound was used as a cellular control.

pIC50: −log10 of the molar value. Read-outs that look alike come from different tables or passages of the source.

Regarding `CCNCc1ccc(-c2nc(O)c(O)c(C(=O)N[C@H](C)C3CCCCC3)n2)nc1` [Compound 60, (R)-N-(1-cyclohexylethyl)-2-(5-((ethylamino)methyl)pyridin-2-yl)-5,6-dihydroxypyrimidine-4-carboxamide], in data set [1], the IC50 was 694 nM. Also, in the data set on HeLa cells, the “Proliferation assay HELA TD50” value was 6.4286 µM. In addition, the “Proliferation assay PBMC TD50” value in data set [2] was 1600 nM.
Consider `C[C@@H](NC(=O)c1nc(-c2ccc(Cl)cn2)nc(O)c1O)C1CCCCC1` [Compound 49, (R)-2-(5-chloropyridin-2-yl)-N-(1-cyclohexylethyl)-5,6-dihydroxypyrimidine-4-carboxamide], for which, in data set [1], the IC50 was determined as 352 nM. Besides, in the data set on HeLa cells, the “Proliferation assay HELA TD50” value amounted to 2.0999 µM. The “Proliferation assay PBMC TD50” value in data set [2] is listed as 3400 nM.
In the case of `C[C@@H](NC(=O)c1nc(-c2cc3ccccc3cn2)nc(O)c1O)C1CCCCC1` [Compound 25, (R)-N-(1-cyclohexylethyl)-5,6-dihydroxy-2-(isoquinolin-3-yl)pyrimidine-4-carboxamide], the IC50 in data set [1] amounted to 32 nM. In addition, the “Proliferation assay HELA TD50” value with HeLa cells was determined as 1.3934 µM. Also, the “Proliferation assay PBMC TD50” value in data set [2] turned out to be 1750 nM.
Taken in the same sequence, the figures for `C[C@@H](NC(=O)c1nc(-c2cccc(Cl)n2)nc(O)c1O)C1CCCCC1` [Compound 34, (R)-2-(6-chloropyridin-2-yl)-N-(1-cyclohexylethyl)-5,6-dihydroxypyrimidine-4-carboxamide] were 665 nM, 8.2296 µM and 5880 nM.
In the case of `Cc1ccc(-c2nc(O)c(O)c(C(=O)N[C@H](C)C3CCCCC3)n2)nc1C` [Compound 67, (R)-N-(1-cyclohexylethyl)-2-(,5,6-dimethylpyridin-2-yl)-5,6-dihydroxypyrimidine-4-carboxamide], the pIC50 in data set [1] was 5.87. Moreover, the “Proliferation assay HELA TD50” value with HeLa cells was 3.7577 µM. For the same compound, the “Proliferation assay PBMC TD50” value in data set [2] is recorded as 6700 nM.
For `O=C(NC1CCCCC1)c1nc(-c2ccccn2)nc(O)c1O` [Compound 4, N-cyclohexyl-5,6-dihydroxy-2-(pyridin-2-yl)pyrimidine-4-carboxamide], the IC50 in data set [1] is 461 nM. In the data set with HeLa cells, the “Proliferation assay HELA TD50” value stood at 8.1353 µM. For the same compound, the “Proliferation assay PBMC TD50” value in data set [2] came to 4800 nM.
As for `CC(NC(=O)c1nc(-c2cc(Cl)ccn2)nc(O)c1O)C1CCC(F)(F)CC1` (stereo not drawn) [Compound 87, 2-(4-chloropyridin-2-yl)-N-(1-(4,4-difluorocyclohexyl)ethyl)-5,6-dihydroxypyrimidine-4-carboxamide], the IC50 in data set [1] was 1830 nM. In addition, the “Proliferation assay HELA TD50” value in the data set with HeLa cells stood at 6.158 µM. In addition, the “Proliferation assay PBMC TD50” value in data set [2] was determined as 3220 nM.
For `C[C@@H](NC(=O)c1nc(-c2nc3ccccc3[nH]2)nc(O)c1O)C1CCCCC1` [Compound 29, (R)-2-(1H-benzo[d]imidazol-2-yl)-N-(1-cyclohexylethyl)-5,6-dihydroxypyrimidine-4-carboxamide], in that order: 1780 nM, 3.3965 µM and 1700 nM.
Turning to `Cc1ccc(-c2nc(O)c(O)c(C(=O)N[C@H](C)C3CCCCC3)n2)nc1` [Compound 41, (R)-N-(1-cyclohexylethyl)-5,6-dihydroxy-2-(5-methylpyridin-2-yl)pyrimidine-4-carboxamide], in data set [1], the pIC50 is 6.53. The “Proliferation assay HELA TD50” value in the data set with HeLa cells was found to be 2.013 µM. Besides, the “Proliferation assay PBMC TD50” value in data set [2] came out at 2800 nM.
With `O=C(NCCCC1CCCCC1)c1nc(-c2ccccn2)nc(O)c1O` [Compound 8, N-(3-cyclohexylpropyl)-5,6-dihydroxy-2-(pyridin-2-yl)pyrimidine-4-carboxamide], the IC50 in data set [1] amounted to 518 nM. For the same compound, the “Proliferation assay HELA TD50” value in the data set on HeLa cells was 4.8472 µM. In addition, the “Proliferation assay PBMC TD50” value in data set [2] is listed as 2000 nM.
Taken in the same sequence, the figures for `COc1ccnc(-c2nc(O)c(O)c(C(=O)NC3CCC(C)(C)CC3)n2)c1` [Compound 77, N-(4,4-dimethylcyclohexyl)-5,6-dihydroxy-2-(4-methoxypyridin-2-yl)pyrimidine-4-carboxamide] were 1170 nM, 2.2578 µM and 2200 nM.
For `CC(C)(CNC(=O)c1nc(-c2ccccn2)nc(O)c1O)C1CCCC1` [Compound 63, N-(2-cyclopentyl-2-methylpropyl)-5,6-dihydroxy-2-(pyridin-2-yl)pyrimidine-4-carboxamide], in that order: 125 nM, 0.3986 µM and 2100 nM.
Consider `C[C@@H](NC(=O)c1nc(-c2cccc(C(=O)OCc3ccccc3)n2)nc(O)c1O)C1CCCCC1` [Compound 54, benzyl (R)-6-(4-((1-cyclohexylethyl)carbamoyl)-5,6-dihydroxypyrimidin-2-yl)picolinate], for which the pIC50 in data set [1] was 6.37. Moreover, in the data set with HeLa cells, the “Proliferation assay HELA TD50” value turned out to be 24.972 µM. Moreover, the “Proliferation assay PBMC TD50” value in data set [2] stood at 25000 nM.
For the compound `C[C@@H](NC(=O)c1nc(-c2ccc(C(=O)OCc3ccccc3)cn2)nc(O)c1O)C1CCCCC1` [Compound 21, benzyl (R)-6-(4-((1-cyclohexylethyl)carbamoyl)-5,6-dihydroxypyrimidin-2-yl)nicotinate], the IC50 in data set [1] stood at 118 nM. Besides, the “Proliferation assay HELA TD50” value in the data set with HeLa cells worked out at 3.9607 µM. The “Proliferation assay PBMC TD50” value in data set [2] is listed as under 400 nM.
`C[C@@H](NC(=O)c1nc(-c2cc(CCNCc3cccn3C)ccn2)nc(O)c1O)C1CCCCC1` [Compound 91, (R)-N-(1-cyclohexylethyl)-5,6-dihydroxy-2-(4-(2-(((1-methyl-1H-pyrrol-2-yl)methyl)amino)ethyl)pyridin-2-yl)pyrimidine-4-carboxamide]: the half-maximal inhibitory concentration (IC50) in data set [1] is 1100 nM. In the data set with HeLa cells, the “Proliferation assay HELA TD50” value was 1.1604 µM. In addition, the “Proliferation assay PBMC TD50” value in data set [2] was 1090 nM.
Regarding `C[C@@H](NC(=O)c1nc(-c2ccc(C(=O)NCc3ccccc3)cn2)nc(O)c1O)C1CCCCC1` [Compound 50, (R)-2-(5-(benzylcarbamoyl)pyridin-2-yl)-N(1-cyclohexylethyl)-5,6-dihydroxypyrimidine-4-carboxamide], the IC50 in data set [1] was determined as 348 nM. The “Proliferation assay HELA TD50” value in the data set on HeLa cells amounted to 2.2912 µM. Besides, the “Proliferation assay PBMC TD50” value in data set [2] was 2200 nM.
As to `O=C(NCCC1CCCC1)c1nc(-c2ccccn2)nc(O)c1O` [Compound 43, N-(2-cyclopentylethyl)-5,6-dihydroxy-2-(pyridin-2-yl)pyrimidine-4-carboxamide], the negative-log IC50 (pIC50) in data set [1] is 5.86. Also, the “Proliferation assay HELA TD50” value with HeLa cells is 2.1901 µM. Besides, the “Proliferation assay PBMC TD50” value in data set [2] came out at 8090 nM.
Consider `COc1ccc2nc(-c3nc(O)c(O)c(C(=O)N[C@H](C)C4CCCCC4)n3)ccc2c1` [Compound 66, (R)-N-(1-cyclohexylethyl)-5,6-dihydroxy-2-(6-methoxyquinolin-2-yl)pyrimidine-4-carboxamide], for which the half-maximal inhibitory concentration (IC50) in data set [1] was 1970 nM. The “Proliferation assay HELA TD50” value in the data set with HeLa cells was 3.66 µM. For the same compound, the “Proliferation assay PBMC TD50” value in data set [2] amounted to 6600 nM.
For the compound `C[C@@H](NC(=O)c1nc(-c2cc(C(F)(F)F)ccn2)nc(O)c1O)C1CCCCC1` [Compound 27, (R)-N-(1-cyclohexylethyl)-5,6-dihydroxy-2-(4-(trifluoromethyl)pyridin-2-yl)pyrimidine-4-carboxamide], the concentration for half-maximal inhibition (IC50) in data set [1] was 433 nM. In addition, the “Proliferation assay HELA TD50” value in the data set with HeLa cells was found to be 5.9753 µM. In addition, in data set [2], the “Proliferation assay PBMC TD50” value is 1075 nM.
